From patent US20240299542A1, “NATURAL KILLER CELLS ENGINEERED TO REDUCE OR ELIMINATE CBL-B AND USES THEREOF” (City of Hope, priority 2021, published 2024)

How the values were obtained:
[1] = test system: Cbl-b; experiment: Cbl-b mRNA by qRT-PCR after IL-15 or IL-2 treatment of primary human NK cells; type: cell-based; settings: IL-15 (10 ng/ml) or IL-2 (150 IU/ml)
[2] = test system: Cbl-b; experiment: Cbl-b protein by immunoblot after stimulation of primary human NK cells with cytokines or activating antibody; type: cell-based
Experimental: (FIG. 1B) Enriched primary human NK cells were co-cultured with the K562 myeloid leukemia cell line (E/T ratio=10:1) for 24 h followed by immunoblot analysis. Summary data are from three independent experiments. (FIG. 1C) Primary human NK cells were treated with different concentrations of IL-15 for 24 h followed by immunoblot analysis (n=5 donors). (FIG. 1D) Equal numbers of purified CD56^+ human NK cells, CD56^bright NK cells and CD56^dim NK cells were sorted from peripheral blood mononuclear cells isolated by Ficoll, cultured and stimulated with IL-15 (20 ng/ml for 24 h) followed by immunoblot analysis. The data are representative of three independent experiments. Med, medium only; *P<0.05, **P<0.01 by two-tailed unpaired t-test or One-way ANOVA; ns, not significant. Data are presented as mean±SEM.
FIG. 6A Enriched primary human NK cells were cocultured with Molm-13 or MV4-11 leukemia cell lines (E/T ratio=10:1) for 24 h prior to assessment of Cbl-b by immunoblot analysis. […] FIG. 6B Enriched primary human NK cells were cultured overnight with an anti-NKG2D activating antibody (clone 1D11) (10 μg/ml) or mouse IgG (10 μg/ml) as control prior to assessment of Cbl-b by immunoblot analysis. […] Data are shown summarizes four independent experiments. […] Data are shown summarizes five independent experiments. FIG. 6E The expression of Cbl-b was assessed by qRT-PCR after primary human NK cells were incubated with K562 cells (E/T ratio=10:1) for 24 h. Data are shown summarizes five independent experiments. *P<0.05, **P<0.01, compared to the shortest time point. Data are presented as mean±SEM.
(§1) Immunoblotting. Cells were harvested and suspended in RIPA lysis buffer (Thermo Fisher Scientific) on ice for 20 minutes. Equal amount of protein was resolved by 5-15% Criterion TGX gel (Bio-Rad) and then transferred onto a Nitrocellulose (NC) or PVDF membrane (Thermo Fisher Scientific). The membrane was incubated with a primary antibody at 4° C. overnight and an IRDye secondary antibody (Li-COR Biosciences) for 1 hour at room temperature. The immunoblots were visualized with Odyssey CLx Imager (Li-COR Biosciences). Densitometric analysis was performed to quantify intensity of gel bands with Image J (National Institutes of Health).
We assessed the expression of Cbl-b protein in primary human NK cells enriched from the blood of healthy donors in response to 24-hour stimulation by different cytokines. […] Since certain tumor cells can trigger NK cell activation, we co-cultured NK cells for 24 h with different tumor cell lines in order to assess this effect on the expression of Cbl-b.

[3] = test system: p-STAT5; experiment: p-STAT5 by immunoblot in IL-15-activated NK cells pretreated with Mertk inhibitors; type: cell-based, human; settings: 5 uM, 90 min pretreatment, then IL-15 (10 ng/ml) 30 min, vs no inhibitor
Experimental: FIGS. 5A-5D depict the results of a study showing that Cbl-b interacts with and regulates phosphorylation of Mertk in primary human NK cells. (FIG. 5A) Representative intracellular flow cytometric analysis of the TAM family receptors expression in primary human NK cells. Summarized data are shown from 6 donors. IgG1 is the isotype for Tyro3 and Axl, while IgG2 for Mertk. (FIG. 5B) The level of Mertk phosphorylation and Cbl-b in Cbl-b siRNA- or Scr siRNA-transduced primary human NK was measured by immunoblot analysis. Data presented are representative of five independent experiments. […] Data presented are representative of 4 donors performed in a similar fashion and are summarized in the panel below the representative flow dot plots. […]
Immunoblotting. […] Densitometric analysis was performed to quantify intensity of gel bands with Image J (National Institutes of Health).
The TAM receptor family consists of Tyro3, Axl and Mertk, all of which are expressed in mature mouse NK cells (25) and are molecular substrates for Cbl-b ubiquitylation both in vitro and in vivo (17). To investigate the possible relationship between Cbl-b and the TAM receptor family in primary human NK cells, we detected the expression of the three TAM receptor members in NK cells. […]

[4] = test system: IFN-γ; experiment: Intracellular IFN-γ flow cytometry of NK cells pretreated with Mertk inhibitors; type: cell-based, human; settings: for percentage of intracellular IFN-γ+ cells: 5 uM, 90 min pretreatment, then IL-15 (10 ng/ml) 24 h; for IFN-γ level lower than control with no inhibitor: in the presence of IL-15
Experimental: FIGS. 5A-5D depict the results of a study showing that Cbl-b interacts with and regulates phosphorylation of Mertk in primary human NK cells. (FIG. 5A) Representative intracellular flow cytometric analysis of the TAM family receptors expression in primary human NK cells. Summarized data are shown from 6 donors. IgG1 is the isotype for Tyro3 and Axl, while IgG2 for Mertk. (FIG. 5B) The level of Mertk phosphorylation and Cbl-b in Cbl-b siRNA- or Scr siRNA-transduced primary human NK was measured by immunoblot analysis. Data presented are representative of five independent experiments. […] Data presented are representative of 4 donors performed in a similar fashion and are summarized in the panel below the representative flow dot plots. (FIG. 5D) Primary NK cells were pretreated with the Mertk inhibitors UNC2550 or UNC2881 (5 uM) for 90 min prior to 30 min activation by IL-15 (10 ng/ml). Data presented are representative of 4 donors performed in a similar fashion. Scr-scrambled; *P<0.05; ns, not significant. Data presented as mean±SEM.
Flow cytometry. To determine protein cell surface expression via flow cytometry, cells were stained with monoclonal antibodies at room temperature for 20 minutes and washed with FACS buffer prior to analysis using a Fortessa X-20 flow cytometer (BD Biosciences). For IFN-γ intracellular flow cytometric analysis, […] GolgiPlug (BD Biosciences) was added for 4 h before cell harvest; cells were then permeabilized and fixed using a Cytofix/Cytoperm Fixation/Permeabilization Solution Kit (BD Biosciences), followed by analysis with a Fortessa X-20 flow cytometer. Intracellular flow cytometric analysis of Mertk was performed similarly except that GolgiPlug was not added. Data was analyzed by using Flowjo V10 software (Tree Star, Ashland, OR, USA).
The TAM receptor family consists of Tyro3, Axl and Mertk, all of which are expressed in mature mouse NK cells (25) and are molecular substrates for Cbl-b ubiquitylation both in vitro and in vivo (17). To investigate the possible relationship between Cbl-b and the TAM receptor family in primary human NK cells, we detected the expression of the three TAM receptor members in NK cells. […] However, the level of total mertk is low in human NK cells (FIG. 10B), preventing us to characterize the mechanism associated with the p-Mertk regulation by Cbl-b. Next, primary human NK cells were pretreated with or without Mertk inhibitors (UNC2550 or UNC2881), followed by IL-15 stimulation.

[5] = test system: Cbl-b; experiment: Cbl-b protein by immunoblot after inhibitor pretreatment and K562 co-culture of primary NK cells; type: cell-based, human; settings: 10 uM, 90 min pretreatment, 24 h co-culture with K562 (E/T=10:1), vs vehicle control
Experimental: FIG. 7A Primary NK cells were pretreated with AZD1480 (10 uM), CP-690550 (10 uM) or Afuresertib (10 uM) for 90 min prior to a 24 h cocultured with K562 cells (E/T=10:1). The immunoblot data are representative of 3 donors in a similar fashion. Densitometric quantification assessing the ratio of Cbl-b protein levels to β-actin protein levels for 3 donors is summarized in FIG. 7B. *P<0.05, **P<0.01; ns, not significant. Data are presented as mean±SEM.
as §1
(§2) Since IL-15 utilizes select JAK-STAT proteins to initiate cellular activation, we pretreated primary NK cells with the JAK3 inhibitor CP-690550 (22) or the JAK1/2 inhibitor AZD1480 (23) in increasing concentrations prior to IL-15 stimulation then Cbl-b expression level was evaluated. […] As K562 cells were also able to induce expression of Cbl-b in primary human NK cells (FIG. 1B), we repeated the inhibitor experiments under the K562 cell stimulation.

[6] = test system: Cbl-b; experiment: Cbl-b protein by immunoblot after JAK or AKT inhibitor pretreatment and IL-15/IL-2 activation of primary NK cells; type: cell-based, human; settings: 90 min pretreatment at various concentrations, then IL-15 (10 ng/ml) 24 h, vs vehicle control
Experimental: FIGS. 2A-2E depict the results of a study showing that JAK-STAT and AKT pathways mediate upregulation of Cbl-b in NK cells. (FIG. 2A) Primary human NK cells were pretreated with the JAK3 inhibitor CP-690550 and the JAK1/2 inhibitor AZD1480 at various concentrations for 90 min prior to a 24 h activation by IL15 (10 ng/ml). NK cells were then harvested for quantification of Cbl-b protein expression by immunoblot analysis. Data are representative of 6 donors performed in a similar fashion. Densitometric quantification assessing the ratio of the Cbl-b protein to β-actin protein levels for 6 donors is summarized in (FIG. 2B) and (FIG. 2C). […] Data are representative of 5 donors performed in a similar fashion. Densitometric quantification assessing the ratio of the Cbl-b protein levels to β-actin protein levels for 5 donors is summarized in (FIG. 2E). *P<0.05, **P<0.01, ***P<0.001 by One-way ANOVA or Student's two-tailed paired t-test. Data are presented as mean±SEM.
as §1, §2

Row | Molecule | level of p-STAT5 [3] | percentage of intracellular IFN-γ+ cells [4] [%] | IFN-γ level lower than control with no inhibitor [4] | further results
1 | IL-15: Recombinant human IL-15 protein obtained from National Institutes of Health |  |  |  | upregulation of Cbl-b mRNA at 24 h post stimulation ([1]; 24 h): sustained; time of peak Cbl-b mRNA ([1]; compared to unstimulated NK cells): 4 h; dose response of Cbl-b protein ([2]; different concentrations of IL-15, 24 h): did not find evidence of a dose response change; expression of Cbl-b protein (ratio to β-actin) ([2]; primary human NK cells, 24 h cytokine stimulation, compared to resting NK cells without cytokines): induced an increase in the expression of Cbl-b
2 | CCCCNc1ncc(C(=O)NCc2ccc(-n3ccnc3)cc2)c(NC2CCC(O)CC2)n1 (stereo not drawn) [UNC2881] | decreased | 5.49 | approximately 3 fold | 
3 | C[C@@H]1CCN(C(=O)CC#N)C[C@@H]1N(C)c1ncnc2[nH]ccc12 [CP-690550] |  |  |  | Cbl-b expression after inhibitor pretreatment under K562 stimulation [5]: only the AKT1/2/3 inhibitor Afuresertib rather than either of the two JAK inhibitors; expression of Cbl-b protein after inhibitor pretreatment [6]: significant decrease
4 | UNC2550 | decreased | 5.49 | approximately 3 fold | 
